From ChEMBL document CHEMBL6109147, “Discovery of Potent STING Inhibitors Bearing a Difluorobenzodioxol Structural Motif as Potent Anti-Inflammatory Agents” (J Med Chem, 2025)
Active and inactive are the calls of the source. The calls are words filed in the database; no cut-off is given here.

What was measured:
[1] = target: T1, Stimulator of interferon genes protein (Mus musculus) (UniProt Q3TBT3); assay: Inhibition of STING downstream signalling in mouse RAW264.7 cells assessed as inhibition of DMAAA induced TNFalpha secretion level at 0.3 to 3 uM pre-treated for 1 hr followed by stimulated with DMAAA measured after 24 hrs by ELISA; assay type: cell-based; conditions: dose 0.3-3 µM, time 25.0 hrs
T1 sequence (whole entry): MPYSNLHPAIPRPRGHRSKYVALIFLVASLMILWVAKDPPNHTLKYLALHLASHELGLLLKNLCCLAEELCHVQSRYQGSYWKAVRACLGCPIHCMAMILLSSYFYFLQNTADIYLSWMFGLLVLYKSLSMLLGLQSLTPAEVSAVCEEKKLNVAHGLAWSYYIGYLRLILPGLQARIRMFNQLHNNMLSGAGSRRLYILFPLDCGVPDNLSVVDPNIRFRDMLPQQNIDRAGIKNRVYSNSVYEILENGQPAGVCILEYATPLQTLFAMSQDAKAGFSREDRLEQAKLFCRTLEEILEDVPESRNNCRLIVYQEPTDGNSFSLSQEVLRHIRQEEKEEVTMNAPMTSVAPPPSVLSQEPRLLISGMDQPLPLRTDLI

[2] = target: Stimulator of interferon genes protein (Homo sapiens) (UniProt Q86WV6); assay: Inhibition of STING downstream signalling in human THP1-Dual cells assessed as inhibition of HT-DNA induced IP-10 mRNA expression at 0.3 to 3 uM pre-treated for 1 hr followed by stimulated with HT-DNA measured after 4 hrs by real-time PCR analysis; assay type: cell-based; conditions: dose 0.3-3 µM, time 5.0 hrs
Stimulator of interferon genes protein (Homo sapiens), sequence (Q86WV6 whole entry): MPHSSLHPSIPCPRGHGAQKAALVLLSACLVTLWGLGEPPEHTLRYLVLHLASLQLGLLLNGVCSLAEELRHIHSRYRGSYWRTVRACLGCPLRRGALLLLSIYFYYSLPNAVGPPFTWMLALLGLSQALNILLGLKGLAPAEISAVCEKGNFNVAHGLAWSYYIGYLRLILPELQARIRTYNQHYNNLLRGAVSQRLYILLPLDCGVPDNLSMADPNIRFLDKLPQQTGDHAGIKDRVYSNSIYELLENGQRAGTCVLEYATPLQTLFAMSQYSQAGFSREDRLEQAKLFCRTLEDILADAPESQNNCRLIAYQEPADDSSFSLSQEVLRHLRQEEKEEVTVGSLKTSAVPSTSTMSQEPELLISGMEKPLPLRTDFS

[3] = system: Mus musculus; assay: Anti-inflammatory activity against MSA-2 induced C57BL/6 mouse inflammation model assessed as inhibition of MSA-2 induced Cxcl-10 mRNA expression in kidney at 10 mg/kg, ip pre-treated for 1 hr followed by stimulated with MSA-2 for 4 hrs by real-time PCR analysis; assay type: functional, organism-based; conditions: time 5.0 hrs
[4] = system: Mus musculus; assay: Anti-inflammatory activity in TREX1 D18N mouse model assessed as reduction in Isg15 mRNA expression in kidney at 10 mg/kg, ip measured after 2 weeks; assay type: functional, organism-based
[5] = system: Mus musculus; assay: Effect on Isg15 expression in Cisplatin induced C57BL/6 STING-KO mouse kidney inflammation model at 5 mg/kg, ip treated for 3 days by real-time PCR analysis; assay type: functional, organism-based; conditions: time 3.0 day
[6] = target: Stimulator of interferon genes protein (Homo sapiens) (UniProt Q86WV6); assay: Inhibition of STING downstream signalling in human THP1-Dual cells assessed as inhibition of HT-DNA induced ISG15 mRNA expression at 0.3 to 3 uM pre-treated for 1 hr followed by stimulated with HT-DNA measured after 4 hrs by real-time PCR analysis; assay type: cell-based; conditions: dose 0.3-3 µM, time 5.0 hrs
[7] = system: Mus musculus; assay: Anti-inflammatory activity against Cisplatin induced C57BL/6 STING-KO mouse kidney inflammation model assessed as prevention of Cisplatin induced interstitial vacuolation at 5 mg/kg, ip treated for 3 days; assay type: functional, organism-based; conditions: time 3.0 day
[8] = target: Stimulator of interferon genes protein (Homo sapiens) (UniProt Q86WV6); assay: Inhibition of STING in human THP1-Dual cells assessed as inhibition of MSA-2 induced ISG signalling measured after 1 hr incubation followed by stimulated with MSA-2 by Western blotting analysis; assay type: cell-based
[9] = system: Mus musculus; assay: Anti-inflammatory activity against Cisplatin induced C57BL/6 mouse kidney inflammation model assessed as suppression of Cisplatin induced Cxcl-10 mRNA level in kidney at 5 mg/kg, ip treated for 3 days by real-time PCR analysis; assay type: functional, organism-based; conditions: time 3.0 day
[10] = system: Mus musculus; assay: Anti-inflammatory activity in TREX1 D18N mouse model assessed as reduction in Ifn-beta mRNA expression in kidney at 10 mg/kg, ip measured after 2 weeks; assay type: functional, organism-based
[11] = Metabolic stability in mouse liver microsomes assessed as microsomal intrinsic clearance; assay type: ADME, Microsome; conditions: read-out: CLH
[12] = Metabolic stability in mouse liver microsomes assessed as half life; assay type: ADME, Microsome
[13] = system: Mus musculus; assay: Anti-inflammatory activity against MSA-2 induced C57BL/6 mouse inflammation model assessed as inhibition of MSA-2 induced Isg56 RNA expression in kidney at 10 mg/kg, ip pre-treated for 1 hr followed by stimulated with MSA-2 for 4 hrs by real-time PCR analysis; assay type: functional, organism-based; conditions: time 5.0 hrs
[14] = system: Stimulator of interferon genes protein (Homo sapiens), Q86WV6 [UNDEFINED MUTATION]; assay: Inhibition of human STING expressed in 293T-Dual-hSTING-293Q cells assessed as reduction in cGAMP-induced secreted luciferase reporter of interferon stimulated gene (ISG) measured after 24 hrs incubation; assay type: cell-based
Stimulator of interferon genes protein (Homo sapiens), Q86WV6 [UNDEFINED MUTATION], sequence (Q86WV6 whole entry, looked up, stated change not applied): as the sequence (Q86WV6 whole entry) above

[15] = system: Mus musculus; assay: Anti-inflammatory activity in TREX1 D18N mouse model assessed as reduction in Cxcl10 mRNA expression in heart at 10 mg/kg, ip measured after 2 weeks; assay type: functional, organism-based
[16] = Metabolic stability in human liver microsomes assessed as liver intrinsic clearance; assay type: ADME, Microsome
[17] = system: Mus musculus; assay: Prevention of body weight loss in Cisplatin induced C57BL/6 mouse kidney inflammation model at 5 mg/kg, ip treated for 3 days; assay type: functional, organism-based; conditions: time 3.0 day
[18] = system: Mus musculus; assay: Effect on […] expression in Cisplatin induced C57BL/6 STING-KO mouse kidney inflammation model at 5 mg/kg, ip treated for 3 days by real-time PCR analysis; assay type: functional, organism-based; conditions: time 3.0 day
[19] = target: T1, Stimulator of interferon genes protein (Mus musculus); assay: Inhibition of STING downstream signalling in mouse BMDM cells assessed as inhibition of MSA-2 induced Ccl5 mRNA level pre-treated for 1 hr followed by stimulated with MSA-2 measured after 4 hrs by real-time PCR analysis; assay type: cell-based; conditions: dose 0.3-3 µM, time 5.0 hrs
[20] = system: Mus musculus; assay: Anti-inflammatory activity against Cisplatin induced C57BL/6 STING-KO mouse kidney inflammation model assessed as prevention of Cisplatin induced glomerular injury at 5 mg/kg, ip treated for 3 days; assay type: functional, organism-based; conditions: time 3.0 day
[21] = target: T1, Stimulator of interferon genes protein (Mus musculus); assay: Inhibition of STING downstream signalling in mouse BMDM cells assessed as inhibition of MSA-2 induced Isg15 mRNA level pre-treated for 1 hr followed by stimulated with MSA-2 measured after 4 hrs by real-time PCR analysis; assay type: cell-based; conditions: dose 0.3-3 µM, time 5.0 hrs
[22] = system: Mus musculus; assay: Toxicity in TREX1 D18N mouse model assessed as change in body weight at 10 mg/kg, ip measured after 2 weeks; assay type: organism-based; conditions: in vivo, 336 h
[23] = target: T1, Stimulator of interferon genes protein (Mus musculus); assay: Inhibition of STING downstream signalling in mouse RAW264.7 cells assessed as inhibition of DMAAA induced Isg56 mRNA level pre-treated for 1 hr followed by stimulated with DMAAA measured after 4 hrs by real-time PCR analysis; assay type: cell-based; conditions: dose 0.3-3 µM, time 5.0 hrs
[24] = system: Mus musculus; assay: Anti-inflammatory activity against MSA-2 induced C57BL/6 mouse inflammation model assessed as inhibition of MSA-2 induced TNF-alpha mRNA expression in kidney at 10 mg/kg, ip pre-treated for 1 hr followed by stimulated with MSA-2 for 4 hrs by real-time PCR analysis; assay type: functional, organism-based; conditions: time 5.0 hrs
[25] = target: Stimulator of interferon genes protein (Homo sapiens) (UniProt Q86WV6); assay: Inhibition of STING downstream signalling in human THP1-Dual cells assessed as inhibition of cGAMP induced IFN-beta mRNA expression at 0.3 to 3 uM pre-treated for 1 hr followed by stimulated with cGAMP measured after 4 hrs by real-time PCR analysis; assay type: cell-based; conditions: dose 0.3-3 µM, time 5.0 hrs
[26] = target: Stimulator of interferon genes protein (Homo sapiens) (UniProt Q86WV6); assay: Inhibition of STING downstream signalling in human THP1-Dual cells assessed as inhibition of MSA-2 induced IP-10 secretion at 0.3 to 3 uM pre-treated for 1 hr followed by stimulated with MSA-2 measured after 24 hrs by ELISA; assay type: cell-based; conditions: dose 0.3-3 µM, time 25.0 hrs

N#CC/C=C/c1ccc2[nH]cc(NC(=O)Nc3ccc4c(c3)OC(F)(F)O4)c2c1
inhibition [1]: Active | inhibition [2]: Active | inhibition [3]: Active | Activity [4]: Active | Activity [5]: inactive | inhibition [6]: Active | Activity [7]: inactive | inhibition [8]: Dose-dependent-effect | inhibition [9]: Active | Activity [10]: Active | microsomal CLint [11]: 52 µL/min/mg | half-life [12]: 26.7 min | inhibition [13]: Active | inhibition [14]: Active | Activity [15]: Active | CLH [16]: 36.9 µL/min/mg | Activity [17]: inactive | Activity [18]: inactive | inhibition [19]: Dose-dependent-effect | Activity [20]: inactive | inhibition [21]: Dose-dependent-effect | Activity [22]: Non-toxic | inhibition [23]: Dose-dependent-effect | inhibition [24]: Active | inhibition [25]: Active | inhibition [26]: Active
